Earlier results on two compounds are cited in US6723737B1 (priority 1999, dated 2004).

The test system of series [1] is genetically obese experimental animals.
The next series deals with young men. The settings on record: after caffeine ingestion, statistically significant.

Regarding `Cn1c(=O)c2c(ncn2C)n(C)c1=O` [caffeine, 1,3,7-trimethylxanthine], the weight loss entry in series [1] is recorded as “did not produce weight loss”. Moreover, the “levels of free fatty acids” value in the series on young men is reported as “increased the levels of free fatty acids”.

As to `Cn1c(=O)c2[nH]cnc2n(C)c1=O` [theophylline, 1,3-dimethylxanthine], in series [1], the weight loss entry is “did not produce weight loss”.
